# Reference: US20240018158A1, “BRM TARGETING COMPOUNDS AND ASSOCIATED METHODS OF USE” (Prelude Therapeutics Incorporated, priority 2020, published 2024)
# Legend:
# SMARCA4 = SMARCA4 (Homo sapiens (Human), UniProt P51532); assay: SMARCA4 HiBiT degradation assay in HeLa cells; format: cell-based; settings: 18 hours; for DC50: read-out: DC50 (SM4-HeLa) SMARCA4 degradation potency; for Dmax: HeLa, read-out: Dmax % (SM4-HeLa) maximum SMARCA4 degradation within the concentrations tested
# Description: (§1) HiBiT peptide knock-in of SMARCA2 in LgBiT expressing HEK293T cells was performed by CRISPR-mediated tagging system as described Promega. The homozygous HiBiT knock-in on c-terminus SMARCA2 was confirmed by sanger sequence. SMARCA2-HiBiT knock-in Hela monoclonal cell (CS302366) and SMARCA4-HiBiT knock-in Hela monoclonal cell (CS3023226) were purchased from Promega. The heterozygous HiBiT-knock-in was confirmed by sanger sequence in both SMARCA2-HiBiT and SMARCA4-HiBiT monoclonal cells.
# (§2) Dispense 10 μL aliquot of prepared Hela-SMARCA2-HiBiT or Hela-SMARCA4-HiBiT cells (1:1 ratio of cells:Trypan Blue (#1450013, Bio-Rad)) onto cell counting slide (#145-0011, Bio-Rad) and obtain cell density and cell viability using cell counter (TC20, Bio-Rad). Remove appropriate volume of resuspended cells from culture flask to accommodate 2500 cells/well @ 20 μL/well. Transfer Hela-HiBiT cells to 50 ml conical (#430290, Corning). Spin down at 1000 rpm for 5 min using tabletop centrifuge (SPINCHRON 15, Beckman). Discard supernatant and resuspend cell pellet in modified EMEM (#30-2003, ATCC) cell culture media containing 10% FBS (F2422-500ML, Sigma), and 1×Penicillin/Streptomycin (200 g/1) (30-002-CI, Corning) to a cell density of 125,000 cells/ml. Dispense 20 μL of resuspended Hela-HiBit cells per well in 384-well TC treated plate (#12-565-343, Thermo Scientific) using standard cassette (#50950372, Thermo Scientific) on Multidrop Combi (#5840310, Thermo Scientific) inside laminar flow cabinet. Dispense test compounds onto plates using digital liquid dispenser (D300E, Tecan). Incubate plates in humidified tissue culture incubator @37° C. for 18 hours. Add 20 ul of prepared Nano-Glo® HiBiT Lytic detection buffer (N3050, Promega) to each well of 384-well plate using small tube cassette (#24073295, Thermo Scientific) on Multidrop Combi, incubate @ RT for 30-60 min. Read plates on microplate reader (Envision 2105, PerkinElmer) using 384 well Ultra-Sensitive luminescence mode. Raw data files and compound information reports are swept into centralized data lake and deconvoluted using automated scripts designed by TetraScience, Inc. Data analysis, curve-fitting and reporting done in Dotmatics Informatics Suite using Screening Ultra module.
# SMARCA2 = SMARCA2 (Homo sapiens (Human), UniProt P51531); assay: SMARCA2 HiBiT degradation assay in HeLa cells; format: cell-based; settings: 18 hours; for DC50: read-out: DC50 (SM2-HeLa) SMARCA2 degradation potency; for Dmax: read-out: Dmax % (SM2-HeLa) maximum SMARCA2 degradation within the concentrations tested
# Description: as §1, §2
# SMARCA2, sequence (P51531 whole entry): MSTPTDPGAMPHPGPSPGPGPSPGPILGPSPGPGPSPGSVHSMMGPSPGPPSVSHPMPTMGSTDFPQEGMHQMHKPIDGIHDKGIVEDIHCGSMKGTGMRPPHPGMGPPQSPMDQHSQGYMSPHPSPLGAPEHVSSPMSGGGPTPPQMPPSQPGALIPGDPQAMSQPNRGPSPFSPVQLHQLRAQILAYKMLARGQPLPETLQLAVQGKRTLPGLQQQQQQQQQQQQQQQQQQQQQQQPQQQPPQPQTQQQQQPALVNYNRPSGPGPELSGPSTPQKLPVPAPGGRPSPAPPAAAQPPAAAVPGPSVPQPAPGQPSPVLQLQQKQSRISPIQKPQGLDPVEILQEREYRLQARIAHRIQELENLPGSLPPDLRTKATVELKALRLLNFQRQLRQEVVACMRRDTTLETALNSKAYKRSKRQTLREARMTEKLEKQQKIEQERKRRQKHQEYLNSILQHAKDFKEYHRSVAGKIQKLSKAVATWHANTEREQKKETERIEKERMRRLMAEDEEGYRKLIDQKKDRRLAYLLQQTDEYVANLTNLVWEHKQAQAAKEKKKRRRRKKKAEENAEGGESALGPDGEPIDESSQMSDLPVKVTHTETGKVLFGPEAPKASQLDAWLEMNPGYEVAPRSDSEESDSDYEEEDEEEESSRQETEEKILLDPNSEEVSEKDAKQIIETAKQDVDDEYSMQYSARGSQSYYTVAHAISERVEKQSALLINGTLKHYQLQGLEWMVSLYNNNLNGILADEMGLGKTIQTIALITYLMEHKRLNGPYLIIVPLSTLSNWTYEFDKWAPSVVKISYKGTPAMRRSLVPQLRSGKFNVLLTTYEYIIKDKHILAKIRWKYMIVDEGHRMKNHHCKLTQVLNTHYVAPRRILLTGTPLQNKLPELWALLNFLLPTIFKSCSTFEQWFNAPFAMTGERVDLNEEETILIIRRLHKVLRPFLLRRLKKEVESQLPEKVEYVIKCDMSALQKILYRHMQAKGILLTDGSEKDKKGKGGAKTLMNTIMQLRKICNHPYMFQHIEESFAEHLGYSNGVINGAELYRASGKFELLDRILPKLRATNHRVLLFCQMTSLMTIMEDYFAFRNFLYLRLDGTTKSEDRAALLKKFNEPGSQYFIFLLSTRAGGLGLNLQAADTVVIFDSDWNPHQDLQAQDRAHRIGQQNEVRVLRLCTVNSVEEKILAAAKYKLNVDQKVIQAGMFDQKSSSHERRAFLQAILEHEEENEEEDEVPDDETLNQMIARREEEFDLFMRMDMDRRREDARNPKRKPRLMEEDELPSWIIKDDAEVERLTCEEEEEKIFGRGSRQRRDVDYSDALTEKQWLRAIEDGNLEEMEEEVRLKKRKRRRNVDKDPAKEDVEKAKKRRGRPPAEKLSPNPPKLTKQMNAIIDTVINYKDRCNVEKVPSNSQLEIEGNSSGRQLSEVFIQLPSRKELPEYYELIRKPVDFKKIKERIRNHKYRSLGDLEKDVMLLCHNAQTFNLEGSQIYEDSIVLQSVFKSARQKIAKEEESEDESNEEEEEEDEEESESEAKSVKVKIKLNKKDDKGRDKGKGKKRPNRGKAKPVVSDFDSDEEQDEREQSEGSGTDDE
# SMARCA4, sequence (P51532 whole entry): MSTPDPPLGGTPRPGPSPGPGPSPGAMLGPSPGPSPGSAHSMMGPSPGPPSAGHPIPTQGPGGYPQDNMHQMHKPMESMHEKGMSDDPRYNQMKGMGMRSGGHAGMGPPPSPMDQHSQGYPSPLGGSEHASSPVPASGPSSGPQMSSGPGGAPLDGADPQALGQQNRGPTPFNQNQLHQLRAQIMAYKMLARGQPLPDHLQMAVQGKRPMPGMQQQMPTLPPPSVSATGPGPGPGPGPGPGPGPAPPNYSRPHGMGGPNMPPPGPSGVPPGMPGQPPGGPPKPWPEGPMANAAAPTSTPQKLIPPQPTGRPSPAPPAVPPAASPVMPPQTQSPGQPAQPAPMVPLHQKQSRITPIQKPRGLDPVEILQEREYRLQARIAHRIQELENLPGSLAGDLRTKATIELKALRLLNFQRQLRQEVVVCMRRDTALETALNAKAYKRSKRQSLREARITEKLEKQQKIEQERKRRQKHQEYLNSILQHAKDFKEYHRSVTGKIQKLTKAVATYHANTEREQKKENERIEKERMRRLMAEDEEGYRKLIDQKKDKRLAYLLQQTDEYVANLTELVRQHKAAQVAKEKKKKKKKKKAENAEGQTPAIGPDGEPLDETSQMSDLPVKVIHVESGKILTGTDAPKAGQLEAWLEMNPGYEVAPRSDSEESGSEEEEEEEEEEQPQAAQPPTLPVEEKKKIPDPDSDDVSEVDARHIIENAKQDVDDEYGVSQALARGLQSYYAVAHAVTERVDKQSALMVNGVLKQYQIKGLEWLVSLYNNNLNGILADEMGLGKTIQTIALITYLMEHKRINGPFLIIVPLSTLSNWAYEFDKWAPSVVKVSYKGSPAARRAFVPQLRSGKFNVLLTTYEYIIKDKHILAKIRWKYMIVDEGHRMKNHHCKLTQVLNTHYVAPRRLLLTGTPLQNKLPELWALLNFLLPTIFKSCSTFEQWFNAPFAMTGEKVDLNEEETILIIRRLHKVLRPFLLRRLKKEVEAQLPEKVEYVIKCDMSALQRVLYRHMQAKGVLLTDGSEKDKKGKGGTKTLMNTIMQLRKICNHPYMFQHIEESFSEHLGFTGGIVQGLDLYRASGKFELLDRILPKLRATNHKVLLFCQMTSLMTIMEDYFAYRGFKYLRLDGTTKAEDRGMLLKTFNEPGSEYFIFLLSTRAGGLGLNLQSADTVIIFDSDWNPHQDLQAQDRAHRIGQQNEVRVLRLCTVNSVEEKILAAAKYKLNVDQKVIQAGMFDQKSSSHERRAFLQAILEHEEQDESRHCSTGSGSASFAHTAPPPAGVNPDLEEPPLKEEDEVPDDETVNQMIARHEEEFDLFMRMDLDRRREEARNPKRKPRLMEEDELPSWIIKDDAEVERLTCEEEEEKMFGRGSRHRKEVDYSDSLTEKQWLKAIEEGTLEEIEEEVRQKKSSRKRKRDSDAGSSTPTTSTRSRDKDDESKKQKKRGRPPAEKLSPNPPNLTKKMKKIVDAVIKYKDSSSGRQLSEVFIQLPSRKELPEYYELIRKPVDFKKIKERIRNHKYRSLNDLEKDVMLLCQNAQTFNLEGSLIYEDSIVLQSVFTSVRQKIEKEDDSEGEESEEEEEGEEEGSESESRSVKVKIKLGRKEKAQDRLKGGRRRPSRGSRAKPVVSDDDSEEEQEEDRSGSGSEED
SMILES,DC50 (SMARCA4),Dmax (SMARCA4),DC50 (SMARCA2),Dmax (SMARCA2),Dmax % (SM4-HeLa) maximum SMARCA4 degradation within the concentrations tested (SMARCA4),Dmax % (SM2-HeLa) maximum SMARCA2 degradation within the concentrations tested (SMARCA2)
"Cc1ncsc1-c1ccc([C@H](C)NC(=O)[C@@H]2C[C@@H](O)CN2C(=O)[C@@H](c2cc(O[C@H](C)CN3CCC(N4CCN5c6cc(-c7ccccc7O)nnc6NC[C@H]5C4)C3)no2)C(C)C)cc1 (single isomer, unassigned) [Example 50]",< 0.1 µM,> 75%,< 0.1 µM,> 75%,–,–
"Cc1ncsc1-c1ccc([C@H](C)NC(=O)[C@@H]2C[C@@H](O)CN2C(=O)[C@@H](c2cc(O[C@H](C)CN3CCC(N4CCN5c6cc(-c7ccccc7O)nnc6NC[C@H]5C4)C3)no2)C(C)C)cc1 (single isomer, unassigned) [Example 51]",< 0.1 µM,–,< 0.1 µM,–,A/A (A = Dmax >75%),A/A (A = Dmax >75%)
"Cc1ncsc1-c1ccc([C@H](C)NC(=O)[C@@H]2C[C@@H](O)CN2C(=O)[C@@H](c2cc(OCCN3CCC(N4CCN5c6cc(-c7ccccc7O)nnc6NC[C@H]5C4)C(C)C3)no2)C(C)C)cc1 (single isomer, unassigned) [Example 55]",< 0.1 µM,> 75%,< 0.1 µM,> 75%,–,–
"Cc1ncsc1-c1ccc([C@H](C)NC(=O)[C@@H]2C[C@@H](O)CN2C(=O)[C@@H](c2cc(OCCN3CCC(C(C)N4CCN5c6cc(-c7ccccc7O)nnc6NC[C@H]5C4)CC3)no2)C(C)C)cc1 (single isomer, unassigned) [Example 58]",< 0.1 µM,> 75%,< 0.1 µM,> 75%,–,–
"Cc1ncsc1-c1ccc([C@H](C)NC(=O)[C@@H]2C[C@@H](O)CN2C(=O)[C@@H](c2cc(OCCN3CCC(C(C)N4CCN5c6cc(-c7ccccc7O)nnc6NC[C@H]5C4)CC3)no2)C(C)C)cc1 (single isomer, unassigned) [Example 59]",< 0.1 µM,–,< 0.1 µM,–,–,–
"Cc1ncsc1-c1ccc([C@H](C)NC(=O)[C@@H]2C[C@@H](O)CN2C(=O)[C@@H](c2cc(OCCN3CCC(N4CCC(N5CCN6c7cc(-c8ccccc8O)nnc7NC[C@H]6C5)C4)CC3)no2)C(C)C)cc1 (single isomer, unassigned) [Example 69]",< 0.1 µM,> 75%,< 0.1 µM,> 75%,–,–
"Cc1ncsc1-c1ccc([C@H](C)NC(=O)[C@@H]2C[C@@H](O)CN2C(=O)[C@@H](c2cc(OCCN3CCC(N4CCC(N5CCN6c7cc(-c8ccccc8O)nnc7NC[C@H]6C5)C4)CC3)no2)C(C)C)cc1 (single isomer, unassigned) [Example 70]",< 0.1 µM,–,< 0.1 µM,–,–,–
"Cc1ncsc1-c1ccc([C@H](C)NC(=O)[C@@H]2C[C@@H](O)CN2C(=O)[C@@H](c2cc(OCCN3CCCC(CN4CCN5c6cc(-c7ccccc7O)nnc6NC[C@H]5C4)C3)no2)C(C)C)cc1 (single isomer, unassigned) [Example 86]",< 0.1 µM,> 75%,< 0.1 µM,> 75%,–,–
"Cc1ncsc1-c1ccc([C@H](C)NC(=O)[C@@H]2C[C@@H](O)CN2C(=O)[C@@H](c2cc(OCCN3CCC(N4CCC(N5CCN6c7cc(-c8ccccc8O)nnc7NC[C@H]6C5)CC4)C3)no2)C(C)C)cc1 (stereo partly drawn) [Example 25, (2S,4R)-4-hydroxy-1-((2R)-2-(3-(2-(3-(4-((S)-2-(2-hydroxyphenyl)-5,6,6a,7,9,10-hexahydro-8H-pyrazino[1′,2′:4,5]pyrazino[2,3-c]pyridazin-8-yl)piperidin-1-yl)pyrrolidin-1-yl)ethoxy)isoxazol-5-yl)-3-methylbutanoyl)-N-((S)-1-(4-(4-methylthiazol-5-yl)phenyl)ethyl)pyrrolidine-2-carboxamide]",0.1 to 1 µM,50 to 75%,< 0.1 µM,> 75%,–,–
"Cc1ncsc1-c1ccc([C@H](C)NC(=O)[C@@H]2C[C@@H](O)CN2C(=O)[C@@H](c2cc(OCCN3CCC(N4CCC(N5CCN6c7cc(-c8ccccc8O)nnc7NC[C@H]6C5)CC4)C3)no2)C(C)C)cc1 (stereo partly drawn) [Example 26, (2S,4R)-4-hydroxy-1-((2R)-2-(3-(2-(3-(4-((S)-2-(2-hydroxyphenyl)-5,6,6a,7,9,10-hexahydro-8H-pyrazino[1′,2′:4,5]pyrazino[2,3-c]pyridazin-8-yl)piperidin-1-yl)pyrrolidin-1-yl)ethoxy)isoxazol-5-yl)-3-methylbutanoyl)-N-((S)-1-(4-(4-methylthiazol-5-yl)phenyl)ethyl)pyrrolidine-2-carboxamide]",0.1 to 1 µM,–,< 0.1 µM,–,–,–
"Cc1ncsc1-c1ccc([C@H](C)NC(=O)[C@@H]2C[C@@H](O)CN2C(=O)[C@@H](c2cc(O[C@@H](C)C(=O)N3CCC(N4CCN5c6cc(-c7ccccc7O)nnc6NC[C@H]5C4)CC3)no2)C(C)C)cc1 [Example 27, (2S,4R)-4-hydroxy-1-((R)-2-(3-(((S)-1-(4-((S)-2-(2-hydroxyphenyl)-5,6,6a,7,9,10-hexahydro-8H-pyrazino[1′,2′:4,5]pyrazino[2,3-c]pyridazin-8-yl)piperidin-1-yl)-1-oxopropan-2-yl)oxy)isoxazol-5-yl)-3-methylbutanoyl)N-((S)-1-(4-(4-methylthiazol-5-yl)phenyl)ethyl)pyrrolidine-2-carboxamide]",0.1 to 1 µM,50 to 75%,< 0.1 µM,> 75%,–,–
"Cc1ncsc1-c1ccc([C@H](C)NC(=O)[C@@H]2C[C@@H](O)CN2C(=O)C(c2cc(O[C@H](C)C(=O)N3CCC(N4CCN5c6cc(-c7ccccc7O)nnc6NC[C@H]5C4)C3)no2)C(C)C)cc1 (stereo partly drawn) [Example 28, (2S,4R)-4-hydroxy-1-(2-(3-(((2R)-1-(3-((S)-2-(2-hydroxyphenyl)-5,6,6a,7,9,10-hexahydro-8H-pyrazino[1′,2′:4,5]pyrazino[2,3-c]pyridazin-8-yl)pyrrolidin-1-yl)-1-oxopropan-2-yl)oxy)isoxazol-5-yl)-3-methylbutanoyl)-N-((S)-1-(4-(4-methylthiazol-5-yl)phenyl)ethyl)pyrrolidine-2-carboxamide]",0.1 to 1 µM,≤ 50%,< 0.1 µM,> 75%,–,–
"Cc1ncsc1-c1ccc([C@H](C)NC(=O)[C@@H]2C[C@@H](O)CN2C(=O)C(c2cc(O[C@H](C)C(=O)N3CCC(N4CCN5c6cc(-c7ccccc7O)nnc6NC[C@H]5C4)C3)no2)C(C)C)cc1 (stereo partly drawn) [Example 29, (2S,4R)-4-hydroxy-1-(2-(3-(((2R)-1-(3-((S)-2-(2-hydroxyphenyl)-5,6,6a,7,9,10-hexahydro-8H-pyrazino[1′,2′:4,5]pyrazino[2,3-c]pyridazin-8-yl)pyrrolidin-1-yl)-1-oxopropan-2-yl)oxy)isoxazol-5-yl)-3-methylbutanoyl)-N-((S)-1-(4-(4-methylthiazol-5-yl)phenyl)ethyl)pyrrolidine-2-carboxamide]",0.1 to 1 µM,–,< 0.1 µM,–,–,–
"Cc1ncsc1-c1ccc([C@H](C)NC(=O)[C@@H]2C[C@@H](O)CN2C(=O)C(c2cc(CCN(C)CCN3CCN4c5cc(-c6ccccc6O)nnc5NC[C@H]4C3)no2)C(C)C)cc1 (stereo partly drawn) [Example 34, (2S,4R)-4-hydroxy-1-(2-(3-(2-((2-((S)-2-(2-hydroxyphenyl)-5,6,6a,7,9,10-hexahydro-8H-pyrazino[1′,2′:4,5]pyrazino[2,3-c]pyridazin-8-yl)ethyl)(methyl)amino)ethyl)isoxazol-5-yl)-3-methylbutanoyl)N-((S)-1-(4-(4-methylthiazol-5-yl)phenyl)ethyl)pyrrolidine-2-carboxamide]",≥ 10 µM,≤ 50%,< 0.1 µM,> 75%,–,–
"Cc1ncsc1-c1ccc([C@H](C)NC(=O)[C@@H]2C[C@@H](O)CN2C(=O)[C@@H](c2cc(OCCN3CCC(CN4CCN5c6cc(-c7ccccc7O)nnc6NC[C@H]5C4)CC3)no2)C(C)C)cc1 [Example 38, (2S,4R)-4-hydroxy-1-((R)-2-(3-(2-(4-(((S)-2-(2-hydroxyphenyl)-5,6,6a,7,9,10-hexahydro-8H-pyrazino[1′,2′:4,5]pyrazino[2,3-c]pyridazin-8-yl)methyl)piperidin-1-yl)ethoxy)isoxazol-5-yl)-3-methylbutanoyl)-N-((S)-1-(4-(4-methylthiazol-5-yl)phenyl)ethyl)pyrrolidine-2-carboxamide]",< 0.1 µM,> 75%,< 0.1 µM,> 75%,–,–
